# Columns and labels:
# [1] = Lipophilicity, logD of compound at pH 7.4 by shake flask method; type: physicochemical; conditions: buffer
# [2] = Microsomal stability in human liver microsome assessed as clearance at 1.0 uM preincubated for 5 mins followed by NADPH addition measured upto 60 mins by LC-MS/MS analysis; type: ADME; conditions: liver microsomes, time < 65 min
# [3] = Microsomal stability in rat liver microsome assessed as clearance at 1.0 uM preincubated for 5 mins followed by NADPH addition measured upto 60 mins by LC-MS/MS analysis; type: ADME; conditions: liver microsomes, time < 65 min
# [4] = Plasma clearance in Sprague-Dawley rat at 0.5 mg/kg, iv measured upto 8 hrs by LC-MS/MS analysis; type: ADME, organism-based
# [5] = Half life in Sprague-Dawley rat at 2 mg/kg, po measured upto 8 hrs by LC-MS/MS analysis; type: ADME, organism-based; conditions: in vivo
# [6] = Volume of distribution at steady state in Sprague-Dawley rat at […] measured upto 8 hrs by LC-MS/MS analysis; type: ADME, organism-based; conditions: in vivo
# [7] = Oral bioavailability in Sprague-Dawley rat at 2 mg/kg measured upto 8 hrs by LC-MS/MS analysis; type: ADME, organism-based; conditions: in vivo
# [8] = AUC in Sprague-Dawley rat at 0.5 mg/kg, iv measured upto 8 hrs by LC-MS/MS analysis; type: ADME, organism-based; parameters: dose 0.5 mg/kg, time < 8 hrs, route iv; conditions: in vivo
# [9] = Unbound clearance in Sprague-Dawley rat at 0.5 mg/kg, iv measured upto 8 hrs by LC-MS/MS analysis; type: ADME, organism-based; conditions: in vivo
SMILES,logD [1],CLhep predicted at 1 µM [2],CLhep predicted at 1 µM [3],clearance [4],half-life [5],Vdss [6],bioavailability [7],AUC at 8 h [8],CL free [9]
CC(C)[C@@H]1CNC(=O)c2cc(N3CCOCC3)nn21,0.7,< 3.9 mL/min/kg,< 6.1 mL/min/kg,–,–,–,–,–,–
O=C(Nc1cc(-n2cnc3ccccc32)ccn1)C1CC1,2.8,19 mL/min/kg,34 mL/min/kg,–,–,–,–,–,–
O=C(Nc1cc2cc(-c3nncn3-c3ccccc3Cl)ccc2cn1)C1CC1F (configuration not stated),3.1,12 mL/min/kg,7.2 mL/min/kg,–,–,–,–,–,–
C[C@@H]1NC(=O)c2cc(N3CCOC[C@H]3C)nn2[C@@H]1C1CC1,1.3,< 3.9 mL/min/kg,7.8 mL/min/kg,–,–,–,–,–,–
C[C@@H]1COCCN1c1cc2n(n1)[C@H](C1CC1)C(C)(C)NC2=O,1.5,< 3.9 mL/min/kg,< 6.1 mL/min/kg,–,–,–,–,–,–
"C[C@@H]1COCCN1c1cc2n(n1)C(C(C)(C)O)CNC2=O (single isomer, unassigned)",–,< 3.9 mL/min/kg,< 6.1 mL/min/kg,–,–,–,–,–,–
C[C@@H]1COCCN1c1cc2n(n1)[C@@H]1CCC[C@@H]1NC2=O,1,< 3.9 mL/min/kg,< 6.1 mL/min/kg,7.8 mL/min/kg,1.4 h,0.83 L/kg,61%,4 µM·h,–
Cc1cnc(NC(=O)C2CC2)cc1-c1cc2n(n1)[C@H](C(C)C)CNC2=O,2.5,11 mL/min/kg,25 mL/min/kg,–,–,–,–,–,–
CC(C)[C@@H]1CNC(=O)c2cc(N3CCOC[C@H]3C)nn21,1.2,< 3.9 mL/min/kg,12 mL/min/kg,–,–,–,68%,–,19 mL/min/kg
C[C@@H]1COCCN1c1cc2n(n1)[C@H](C(F)(F)F)CNC2=O,0.8,< 3.9 mL/min/kg,8.5 mL/min/kg,–,–,–,–,–,–
C[C@@H]1COCCN1c1cc2n(n1)[C@H](C1CCCC1)CNC2=O,1.6,9.1 mL/min/kg,28 mL/min/kg,–,–,–,–,–,–
C[C@@H]1CNC(=O)c2cc(-c3ccnc(NC(=O)C4CC4)c3)nn21,1.7,< 3.9 mL/min/kg,< 6.1 mL/min/kg,–,–,–,–,–,–
C[C@@H]1COCCN1c1cc2n(n1)[C@H](C1CC1)C1(CC1)NC2=O,1.6,< 3.9 mL/min/kg,11 mL/min/kg,–,–,–,–,–,–
C[C@@H]1COCCN1c1cc2n(n1)[C@H](C1CC1)[C@H](C1CC1)NC2=O,1.7,< 3.9 mL/min/kg,< 6.1 mL/min/kg,–,–,–,–,–,–
NC(=O)c1ccccc1Nc1ccnc(NC(=O)C2CC2)c1,1.8,5 mL/min/kg,15 mL/min/kg,–,–,–,–,–,–
C[C@@H]1COCCN1c1cc2n(n1)[C@H](C(C)(C)C)CNC2=O,1.4,4.7 mL/min/kg,24 mL/min/kg,–,–,–,–,–,–
C[C@@H]1COCCN1c1cc2n(n1)[C@H](C1CCC1)CNC2=O,1.5,< 3.9 mL/min/kg,23 mL/min/kg,–,–,–,–,–,–
C[C@@H]1COCCN1c1cc2n(n1)C[C@H](C(F)(F)F)NC2=O,1.1,< 3.9 mL/min/kg,< 6.1 mL/min/kg,–,–,–,–,–,–
CC(C)[C@@H]1CNC(=O)c2cc(-c3ccnc(NC(=O)C4CC4)c3)nn21,2.4,< 3.9 mL/min/kg,22 mL/min/kg,–,–,–,–,–,–
C[C@@H]1COCCN1c1cc2n(n1)[C@H](C1CC1)CNC2=O,1,< 3.9 mL/min/kg,11 mL/min/kg,–,–,–,–,–,–
O=C(Nc1cc(-c2ccn3ccnc3c2)ccn1)C1CC1,2.1,17 mL/min/kg,40 mL/min/kg,–,–,–,–,–,–
Cn1ccc(-c2ccnc(NC(=O)C3CC3)c2)cc1=O,1.3,6.4 mL/min/kg,< 6.1 mL/min/kg,–,–,–,–,–,–
